PubChem BioAssay AID1259411 (Chemical Carcinogenesis Research Information System (CCRIS), 2018)
Active and inactive are the calls of the source. How the calls were made is not given here.

Tested on: rodent carcinogenicity bioassays, tumor incidence
Assay: CCRIS carcinogenicity studies
Settings: Dose: 0
In short: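 NCI-built, expert-reviewed records of carcinogenicity and related test outcomes (mutagenicity, tumor promotion/inhibition) compiled from published and report sources, historical span 1985-2011, not updated.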

## CC1CN(N=O)C(=O)O1 (configuration not stated)
Species: HAMSTER, Strain/Sex: SYRIAN/FEMALE, Route: GAVAGE, 14 MG/ML ((0.2 ML OF A SOLUTION IN ETHYL ACETATE/CORN OIL (1:2)) 1/WK FOR 28 WK (STUDY DURATION: LIFE SPAN), Tumor Site: Type of Lesion: FORESTOMACH: SQUAMOUS CELL CARCINOMA OR PAPILLOMA
  carcinogen call: active; positive

## NS(=O)(=O)c1cc2c(cc1Cl)NCNS2(=O)=O
Species: MOUSE, Strain/Sex: B6C3F1/FEMALE, Route: ORAL, 2500, 5000 PPM IN FEED FOR 103-104 WK (STUDY DURATION: 106 WK), 2500, 5000 PPM IN FEED FOR 103-104 WK (STUDY DURATION: 106 WK)
  carcinogen call: inactive; negative
Species: MOUSE, Strain/Sex: B6C3F1/MALE, Route: ORAL, 2500, 5000 PPM IN FEED FOR 103-104 WK (STUDY DURATION: 106 WK), 2500, 5000 PPM IN FEED FOR 103-104 WK (STUDY DURATION: 106 WK), Tumor Site: Type of Lesion: LIVER: HEPATOCELLULAR ADENOMA OR CARCINOMA
  carcinogen call: equivocal
Species: RAT, Strain/Sex: F344/FEMALE, Route: ORAL, 0.1% IN DIET FOR 104 WK (STUDY DURATION: 130 WK)
  carcinogen call: inactive; negative
Species: RAT, Strain/Sex: F344/FEMALE, Route: ORAL, 250, 500, 2000 PPM IN FEED FOR 105-106 WK (STUDY DURATION: 106 WK), 250, 500, 2000 PPM IN FEED FOR 105-106 WK (STUDY DURATION: 106 WK)
  carcinogen call: inactive; negative
Species: RAT, Strain/Sex: F344/MALE, Route: ORAL, 0.1% IN DIET FOR 104 WK (STUDY DURATION: 130 WK)
  carcinogen call: inactive; negative
Species: RAT, Strain/Sex: F344/MALE, Route: ORAL, 250, 500, 2000 PPM IN FEED FOR 105-106 WK (STUDY DURATION: 106 WK), 250, 500, 2000 PPM IN FEED FOR 105-106 WK (STUDY DURATION: 106 WK)
  carcinogen call: inactive; negative

## O=C([O-])CNCCNCC(=O)[O-].O=C([O-])CNCCNCC(=O)[O-].O=C([O-])CNCCNCC(=O)[O-].[Fe+3].[Fe+3]
Species: RAT, Strain/Sex: WISTAR/MALE, Route: INTRAPERITONEAL, 10 MG/KG BW 2/WK FOR 3 MO (STUDY DURATION: 1 YR), Tumor Site: Type of Lesion: KIDNEY: TUMOR
  carcinogen call: active; positive

## C[C@H](CCC(=O)O)[C@H]1CC[C@H]2[C@@H]3CC[C@@H]4C[C@H](O)CC[C@]4(C)[C@H]3CC[C@]12C
Species: MOUSE, Strain/Sex: B6C3F1/FEMALE, Route: GAVAGE, 125, 250 MG/KG IN CORN OIL, 125, 250 MG/KG IN CORN OIL
  carcinogen call: inactive; negative
Species: MOUSE, Strain/Sex: B6C3F1/MALE, Route: GAVAGE, 125, 250 MG/KG IN CORN OIL, 125, 250 MG/KG IN CORN OIL
  carcinogen call: inactive; negative
Species: RAT, Strain/Sex: F344/FEMALE, Route: GAVAGE, 250, 500 MG/KG IN CORN OIL, 250, 500 MG/KG IN CORN OIL
  carcinogen call: inactive; negative
Species: RAT, Strain/Sex: F344/MALE, Route: GAVAGE, 250, 500 MG/KG IN CORN OIL, 250, 500 MG/KG IN CORN OIL
  carcinogen call: inactive; negative

## O=C(O)c1ccc([N+](=O)[O-])cc1
Species: MOUSE, Strain/Sex: B6C3F1/FEMALE, Route: ORAL, 1250, 2500, 5000 PPM IN DIET FOR 103 WK (STUDY DURATION: 104 WK), 1250, 2500, 5000 PPM IN DIET FOR 103 WK (STUDY DURATION: 104 WK)
  carcinogen call: inactive; negative
Species: MOUSE, Strain/Sex: B6C3F1/MALE, Route: ORAL, 1250, 2500, 5000 PPM IN DIET FOR 103 WK (STUDY DURATION: 104 WK), 1250, 2500, 5000 PPM IN DIET FOR 103 WK (STUDY DURATION: 104 WK)
  carcinogen call: inactive; negative
Species: RAT, Strain/Sex: F344/FEMALE, Route: ORAL, 1250, 2500, 5000 PPM IN DIET FOR 103 WK (STUDY DURATION: 104 WK), 1250, 2500, 5000 PPM IN DIET FOR 103 WK (STUDY DURATION: 104 WK), Tumor Site: Type of Lesion: CLITORAL GLAND: ADENOMA, ADENOMA OR CARCINOMA
  carcinogen call: active; positive
Species: RAT, Strain/Sex: F344/MALE, Route: ORAL, 1250, 2500, 5000 PPM IN DIET FOR 103 WK (STUDY DURATION: 104 WK), 1250, 2500, 5000 PPM IN DIET FOR 103 WK (STUDY DURATION: 104 WK)
  carcinogen call: inactive; negative

## C[C@H]([C@H](O)CCC(C)(C)O)[C@H]1CC[C@@]2(O)C3=CC(=O)[C@@H]4C[C@@H](O)[C@@H](O)C[C@]4(C)[C@H]3CC[C@]12C
Species: MOUSE, Strain/Sex: SWISS/FEMALE, Route: ORAL, 3 PPM/25 G BW IN DIET FOR 22 MO (STUDY DURATION: 22 MO), Tumor Site: Type of Lesion: MAMMARY GLAND: TUMOR, LUNG: TUMOR
  carcinogen call: active; positive
Species: MOUSE, Strain/Sex: SWISS/MALE, Route: ORAL, 3 PPM/25 G BW IN DIET FOR 22 MO (STUDY DURATION: 22 MO), Tumor Site: Type of Lesion: LUNG: TUMOR
  carcinogen call: active; positive

## CCc1cc(Cc2cc(CC)cc(C(C)(C)C)c2O)c(O)c(C(C)(C)C)c1
Species: RAT, Strain/Sex: WISTAR/MALE, Route: ORAL, 0.03, 0.1, 0.3% IN DIET FOR DURATION OF STUDY (STUDY DURATION: 18 MO), 0.03, 0.1, 0.3% IN DIET FOR DURATION OF STUDY (STUDY DURATION: 18 MO)
  carcinogen call: inactive; negative

## O=C(O)C[C@@H]1NC(=O)[C@H](Cc2ccccc2)NC1=O
Species: MOUSE, Strain/Sex: SWISS/FEMALE, Route: INTRAVESICULAR, 4-4.4 MG IN CHOLESTEROL PELLET (STUDY DURATION: 26 WK)
  carcinogen call: inactive; negative
Species: MOUSE, Strain/Sex: SWISS/FEMALE, Route: INTRAVESICULAR, 4-4.4 MG IN CHOLESTEROL PELLET (STUDY DURATION: 56 WK)
  carcinogen call: inactive; negative

## CCn1c2ccccc2c2cc(N)ccc21
Species: MOUSE, Strain/Sex: B6C3F1/FEMALE, Route: ORAL, 800, 1200 PPM IN DIET FOR 78 WK (STUDY DURATION: 95-97 WK), 800, 1200 PPM IN DIET FOR 78 WK (STUDY DURATION: 95-97 WK), Tumor Site: Type of Lesion: LIVER: HEPATOCELLULAR CARCINOMA
  carcinogen call: active; positive
Species: MOUSE, Strain/Sex: B6C3F1/MALE, Route: ORAL, 800, 1200 PPM IN DIET FOR 78 WK (STUDY DURATION: 94-96 WK), 800, 1200 PPM IN DIET FOR 78 WK (STUDY DURATION: 94-96 WK), Tumor Site: Type of Lesion: LIVER: HEPATOCELLULAR CARCINOMA, HEPATOCELLULAR ADENOMA OR CARCINOMA
  carcinogen call: active; positive
Species: RAT, Strain/Sex: F344/FEMALE, Route: ORAL, 800, 2000 PPM IN DIET FOR 78 WK (STUDY DURATION: 105-110 WK), 800, 2000 PPM IN DIET FOR 78 WK (STUDY DURATION: 105-110 WK), Tumor Site: Type of Lesion: LIVER: NEOPLASTIC NODULE OR HEPATOCELLULAR CARCINOMA, UTERUS OR ENDOMETRIUM: ADENOCARCINOMA (NOS), EAR (ZYMBAL GLAND): S, Tumor Site: Type of Lesion: LIVER: NEOPLASTIC NODULE OR HEPATOCELLULAR CARCINOMA, UTERUS OR ENDOMETRIUM: ADENOCARCINOMA (NOS), EAR (ZYMBAL GLAND): S
  carcinogen call: active; positive
Species: RAT, Strain/Sex: F344/MALE, Route: ORAL, 800, 2000 PPM IN DIET FOR 78 WK (STUDY DURATION: 104-109 WK), 800, 2000 PPM IN DIET FOR 78 WK (STUDY DURATION: 104-109 WK), Tumor Site: Type of Lesion: INTEGUMENTARY SYSTEM: BASAL CELL OR SQUAMOUS CELL CARCINOMA OR SQUAMOUS CELL PAPILLOMA, LIVER: HEPATOCELLULAR CARCINOMA
  carcinogen call: active; positive

## O=C[C@H](O)[C@@H](O)[C@H](O[C@@H]1O[C@H](CO)[C@H](O)[C@H](O)[C@H]1O)[C@H](O)CO
Species: RAT, Strain/Sex: SPF/FEMALE, Route: ORAL, 20% IN DIET FOR DURATION OF STUDY ADMINISTERED TO OFFSPRING OF RATS FED THE SAME DIETS (STUDY DURATION: 130 WK)
  carcinogen call: inactive; negative
Species: RAT, Strain/Sex: SPF/MALE, Route: ORAL, 20% IN DIET FOR DURATION OF STUDY ADMINISTERED TO OFFSPRING OF RATS FED THE SAME DIETS (STUDY DURATION: 130 WK), Tumor Site: Type of Lesion: ADRENAL GLAND: MEDULLARY TUMORS, TESTES: LEYDIG CELL TUMOR
  carcinogen call: active; positive
